These are literature values, as cited in patent US20030162781A1, “Vehicle for applying chemical compounds on wood” (priority 2001, published 2003).

For this data set the following is noted: water as carrier.

For the molecule `O` [Water], the wood penetration result is given as “scarcely penetrates the wood”.
